Results as given in ChEMBL document CHEMBL4651402, “Screening of ~5500 FDA-approved drugs and clinical candidates for anti-SARS-CoV-2 activity” (2021).

Tested on: SARS-CoV-2
Assay: microbe, parasite or virus in culture
Details: Severe acute respiratory syndrome coronavirus 2, Vero C1008, 48 h

SMILES	IC50	IC50 (read-out: pIC50 (converted))
CCN(CC)CCNC(=O)c1cc(Br)c(N)cc1OC [BROMOPRIDE]	> 20 µM	> 20 µM
O=C(O)C(=O)CBr [BROMOPYRUVATE]	> 20 µM	> 20 µM
O=C(CCCN1CCC(O)(c2ccc(Br)cc2)CC1)c1ccc(F)cc1 [BROMPERIDOL]	> 20 µM	> 20 µM
CN(C)CCC(c1ccc(Br)cc1)c1ccccn1 (centres undefined) [BROMPHENIRAMINE]	> 20 µM	> 20 µM
Cc1nnc2n1-c1sc(Br)cc1C(c1ccccc1Cl)=NC2 [BROTIZOLAM]	> 20 µM	> 20 µM
Cc1ccc2c(Br)cc(Br)c(OC(=O)c3ccccc3)c2n1 [BROXALDINE]	> 20 µM	> 20 µM
O=c1[nH]c(=O)n([C@H]2C[C@H](O)[C@@H](CO)O2)cc1Br [BROXURIDINE]	> 50.1 µM	> 50.1 µM
Oc1c(Br)cc(Br)c2cccnc12 [BROXYQUINOLINE]	> 20 µM	> 20 µM
COc1cc2c(cc1OC)[C@@]13CCN4CC5=CCO[C@H]6CC(=O)N2[C@H]1[C@H]6[C@H]5C[C@H]43 [BRUCINE]	> 20 µM	> 20 µM
Cn1ncc(-c2nc(N[C@H]3CC[C@H](N)CC3)ncc2Cl)c1CC1CC1 [BTX-A51]	> 20 µM	> 20 µM
CCOc1ccc(NC(=O)CC(C)O)cc1 (centres undefined) [BUCETIN]	> 20 µM	> 20 µM
CCCC(=O)Nc1ncnc2c1ncn2[C@@H]1O[C@@H]2COP(=O)(O)O[C@H]2[C@H]1OC(=O)CCC [BUCLADESINE]	> 20 µM	> 20 µM
CCCCC1C(=O)NC(=O)N(C2CCCCC2)C1=O (centres undefined) [BUCOLOME]	> 20 µM	> 20 µM
CCCCN(CCCC)CCCOc1c(C)cc(C(=O)c2cc(=O)c3ccccc3o2)cc1C [BUCROMARONE]	> 20 µM	> 20 µM
CCCC1O[C@@H]2C[C@H]3[C@@H]4CCC5=CC(=O)C=C[C@]5(C)[C@H]4[C@@H](O)C[C@]3(C)[C@]2(C(=O)CO)O1 (some centres undefined) [BUDESONIDE]	> 20 µM	> 20 µM
CCCCOc1ccc(CC(=O)NO)cc1 [BUFEXAMAC]	> 20 µM	> 20 µM
COc1cc(OC)c(C(=O)CCCN2CCCC2)c(OC)c1 [BUFLOMEDIL]	> 20 µM	> 20 µM
CCCCNC(=N)NC(=N)N [BUFORMIN]	> 20 µM	> 20 µM
CN(C)CCc1c[nH]c2ccc(O)cc12 [BUFOTENINE]	> 20 µM	> 20 µM

SMILES	IC50	IC50 (read-out: pIC50 (converted))
CCc1cccc2cc(C(O)CNC(C)(C)C)oc12 (centres undefined) [BUFURALOL]	> 20 µM	> 20 µM
CCCCOC(=O)NS(=O)(=O)c1sc(CC(C)C)cc1-c1ccc(Cn2ccnc2)cc1 [BULOXIBUTID]	> 20 µM	> 20 µM
CCCCC(C(=O)O)C(=O)N(Nc1ccccc1)c1ccccc1 (centres undefined) [BUMADIZONE]	> 20 µM	> 20 µM
CCCCNc1cc(C(=O)O)cc(S(N)(=O)=O)c1Oc1ccccc1 [BUMETANIDE]	> 20 µM	> 20 µM
Cc1cc(-n2nc3ccc(Cl)cc3n2)c(O)c(C(C)(C)C)c1 [BUMETRIZOLE]	> 20 µM	> 20 µM
CCCCc1cc(OC)c2ccccc2c1OC(C)=O [BUNAPROLAST]	> 20 µM	> 20 µM
CC(C)(C)NCC(O)COc1ccccc1C#N (centres undefined) [BUNITROLOL]	> 20 µM	> 20 µM
CN1CC[C@]2(C)c3cc(OC(=O)Nc4ccccc4)ccc3N(C)[C@H]12 [BUNTANETAP]	> 20 µM	> 20 µM
Nc1cc(C(F)(F)F)c(-c2cc(N3CCOCC3)nc(N3CCOCC3)n2)cn1 [BUPARLISIB]	> 20 µM	> 20 µM
CCCCN1CCCCC1C(=O)Nc1c(C)cccc1C (centres undefined) [BUPIVACAINE]	> 20 µM	> 20 µM
CO[C@@]12CC[C@@]3(C[C@@H]1[C@](C)(O)C(C)(C)C)[C@H]1Cc4ccc(O)c5c4[C@@]3(CCN1CC1CC1)[C@H]2O5 [BUPRENORPHINE]	> 20 µM	> 20 µM
CC(NC(C)(C)C)C(=O)c1cccc(Cl)c1 (centres undefined) [BUPROPION]	> 20 µM	> 20 µM
CCCCNC(=O)NC1CCN(c2ncnc3cc(OC)c(OC)cc23)CC1 [BUQUINERAN]	> 20 µM	> 20 µM
O=C(NCc1ccccc1)OCCO [BURAMATE]	> 20 µM	> 20 µM
O=C1CC2(CCCC2)CC(=O)N1CCCCN1CCN(c2ncccn2)CC1 [BUSPIRONE]	> 20 µM	> 20 µM
CS(=O)(=O)OCCCCOS(C)(=O)=O [BUSULFAN]	> 20 µM	> 20 µM
CCCCN(CCCC)CCCOC(=O)c1ccc(N)cc1 [BUTACAINE]	> 20 µM	> 20 µM
CC(=O)Nc1ccc(OC(C)(C)C)cc1 [BUTACETIN]	> 20 µM	> 20 µM
